Experimental data reported in patent US20230054887A1, “SWEETENING AND TASTE-MASKING COMPOSITIONS, PRODUCTS AND USES THEREOF” (HEALTHTECH BIO ACTIVES, S.L.U., priority 2017, published 2023).
Where “and” joins values, the source holds several entries; their conditions need not be identical. Identical values can stand only once.

Key:
Assay type in all cases: in vivo
[1] = Sucrose substitution in orange juice based soft drink, triangular testing by calibrated panel
Source text: The purpose of this example was to maximize the sugar substitution in an orange juice based soft drink while maintaining the same overall taste profile. A calibrated panel was not able to distinguish the reference from the different prototypes in triangular testing.
The reference product (Formula 1 of Table 10) contained 10% added sucrose. The maximum sucrose substitution achieved with NHDC was 15% out of the initial 10 by using 10 ppm of NHDC (Formula 2 of Table 10). With the sweetening composition of the present invention, it was possible to increase the sucrose substitution, up to 25% without changing the taste profile of the beverage (Formula 3 of Table 10).
The composition of each beverage is disclosed in Table 10. For the preparation of these beverages, an orange juice concentrate 65° Bx (Dallant) and orange flavor #2N341/C (Dallant) were used. All the percentages in the table are by weight.

[2] = Taste profile by calibrated taste panel at concentrations equisweet to 3% sucrose; conditions: 0- to 5-point scale
Method: The overall taste profile achieved with the sweetening composition of the present invention was evaluated and compared with the target taste profile of sucrose.
For this assay, all samples were evaluated at the same sweetness level, so each sample was used at a concentration which was equisweet to 3% sucrose. For each sample, the following parameters were evaluated: • Time to first sweetness detection • Time to maximum sweetness • Lingering (time for the sweetness to disappear) • Off-flavour: menthol, liquorice (any tastes that are different from sweetness) • Mouthfeel (density, i.e., the perceived viscosity in the mouth)
These evaluations were carried out by a calibrated taste panel, and conducted at room temperature.
Each of those parameters was evaluated on a 0- to 5-point scale. The values for sucrose were the reference, and were considered the target to emulate.

[3] = Masking bitterness of paracetamol, calibrated test panel, equibitter solution; conditions: for Masking effect (real): 5000 ppm paracetamol
Method: The bitter masking effect against paracetamol was assayed. The anti-bittering effect was measured as a dose-response profile vs. a solution of paracetamol.
The following substances were assayed: NHDC alone, gamma-cyclodextrin alone and compositions comprising NHDC and gamma-cyclodextrin in a molar ratio 1:3 (Example B), 1.5:1 (Example C), 1:6 (Example D) and 1:10 (Example E).
For evaluating the masking effect of each substance, several aqueous solutions were prepared, each containing 5000 ppm of paracetamol and different concentrations of the tested substance, namely, 5, 25, 50, 75 and 100 ppm.
A calibrated test panel compared each solution with several solutions of paracetamol in water at different concentrations, and determined the equibitter paracetamol solution. The equibitter solution was calculated as the average of all the evaluations of the panel.
The masking effect was then calculated from the reference amount of paracetamol contained in each tested solution (5000 ppm) and the amount of paracetamol in the equibitter solution, using the following formula (Formula III): […]
For calculating the masking synergies between gamma-cyclodextrin and NHDC, first, for each amount of the combination (Examples A-E), using the molecular weight of each component, the amounts of gamma-cyclodextrin and NHDC contained therein were calculated. For example, 100 ppm of Example B contain 13.61 ppm of NHDC and 86.39 ppm of gamma-cyclodextrin. Then, the antibittering contribution of each component in the composition was calculated, on the basis of the data of Table 13. For example, 13.61 ppm of NHDC provide 9.44% masking effect and 86.39 ppm of gamma-cyclodextrin provide 5.46% masking effect (the antibittering effects for each specific concentration was calculated by interpolation of the data points in Table 13). Therefore, the expected masking effect is calculated as the sum of the contributions of each component. For example, the expected masking effect of 100 ppm of Example B is 14.90 (i.e., 9.44 plus 5.46).
Finally, the masking synergy is calculated using Formula IV: […]
The masking effect of Examples C (NHDC:gCD 1.5:1), D (NHDC:gCD 1:6) and E (NHDC:gCD 1:10) was also evaluated. Aqueous solutions were prepared, each one of them containing 5000 ppm of paracetamol and different concentrations of each one of the tested formulations Ex. C-E, namely, 25 and 50 ppm. Results are disclosed in Tables 15 to 17.

[4] = Sweetening synergy sensory test: concentration equisweet to sucrose reference solutions in water, expert panel; conditions: for Relative sweetening power: ratio sucrose concentration / equisweet concentration; for Equisweet concentration: room temperature
Method: A sensory test was performed to assess the sweetening synergism achieved with the composition of the invention (Examples A and B), and this effect was also compared to the effect obtained with analogous compositions containing beta-cyclodextrin (Comparative Examples A and B). Further compositions of the present invention (Examples C, D and E) were also assessed in this sensory test.
A group of expert panellists in sweet descriptors evaluated the sweetness of the different compositions as well as that of the ingredients NHDC, beta-cyclodextrin and gamma-cyclodextrin used alone.
Each evaluated sweetening agent was dissolved in water at different concentrations, at room temperature. The panel then determined, for each product, the concentration that was equisweet to the reference solutions of 1% and 3% sucrose in water. The results are summarized in Table 3 (Examples A and B are abbreviated as Ex. A and Ex. B, respectively, and the Comparative Examples A and B are abbreviated as Comp. A and Comp. B, respectively).
Since beta- and gamma-cyclodextrins are also sweet compounds, the equisweet concentrations of both cyclodextrins were also determined by the test panel to assess their possible contribution to the sweetness of the composition. […] Therefore, as the equisweet concentrations of both cyclodextrins are at least three orders of magnitude larger than those of NHDC, it was concluded that their contribution to the sweetness was negligible.
A more quantitative evaluation of the sweetness synergy provided by the compositions of the present invention was performed by comparing the real measured sweetness of the compositions comprising gamma-cyclodextrin and NHDC with the theoretical sweetness expected from the sum of the individual contribution of each component in the composition.
To this end, the relative sweetening power of each component was first calculated. For comparative purposes, the relative sweetening power of beta-cyclodextrin was also calculated. The relative sweetening power of a given compound, at a given sweetness level, indicates how many times sweeter this compound is than sucrose. It is therefore calculated as the ratio between the concentration of sucrose and the equisweet concentration of each ingredient, for each sweetness level.
From the relative sweetening power of each ingredient, it is possible to calculate the expected sweetness (sucrose equivalence) of a blend of those ingredients, according to Formula I:
Expected sweetness (sucrose equivalence) of a blend C1+C2=Concentration of compound C1×relative sweetening power of compound C1+Concentration of compound C2×relative sweetening power of compound C2
Then, the sweetness synergy of a blend of components can be calculated according to Formula II: […]
As disclosed above in Example 3, the relative sweetening power of a given compound, at a given sweetness level, indicates how many times sweeter than sucrose the compound is, and the value is calculated as the ratio between the concentration of sucrose and the equisweet concentration of the compound.

COc1ccc(CCC(=O)c2c(O)cc(O[C@@H]3O[C@H](CO)[C@@H](O)[C@H](O)[C@H]3O[C@@H]3O[C@@H](C)[C@H](O)[C@@H](O)[C@H]3O)cc2O)cc1O [NHDC, 1-[4-[[2-O-(6-Deoxy-α-L-mannopyranosyl)-β-D-glucopyranosyl]oxy]-2,6-dihydroxyphenyl]-3-(3-hydroxy-4-methoxyphenyl)propan-1-one]
Amount used for the maximum sucrose substitution [1]: 10 ppm | Maximum sucrose substitution without changing the taste profile ([1]; reference with 10% added sucrose): 15% | Lingering [2]: 4.00 | Mouthfeel (density) [2]: 1.75 | Off-flavour: menthol, licorice [2]: 3.25 | Time to first sweetness [2]: 3.75 | Time to maximum sweetness [2]: 4.25 | Total sweetness [2]: 5.00 | Equibitter paracetamol solution ([3]; 5000 ppm paracetamol + 100 ppm tested substance): 3266.7 ppm | Masking effect (real) ([3]; tested substance 5 ppm): 6.00% | Masking effect (real) ([3]; tested substance 25 ppm): 14.00% | Masking effect (real) ([3]; tested substance 50 ppm): 15.33% | Masking effect (real) ([3]; tested substance 75 ppm): 27.00% | Masking effect (real) ([3]; tested substance 100 ppm): 34.67% | Relative sweetening power ([4]; 1% sucrose level): 2000 | NHDC amount contained in the equisweet concentration ([4]; 1% sucrose sweetness level): (5.0) ppm | Relative sweetening power ([4]; 3% sucrose level): 1250 | NHDC amount contained in the equisweet concentration ([4]; 3% sucrose sweetness level): (24.0) ppm | Equisweet concentration ([4]; equisweet to 1% sucrose in water): 5 ppm and 5.0 ppm | Equisweet concentration ([4]; equisweet to 3% sucrose in water): 24 ppm and 24.0 ppm
